# Columns and labels:
# [1] = experimental subarachnoid bleeding in rabbits, basal arteria thickness ratio; assay type: in vivo, rabbit; conditions: for suppression of cerebrovascular contraction subsequent to subarachnoid bleeding: rabbits, i.v.; for Basal arteria thickness ratio: after vs before subarachnoid bleeding
# Protocol: By injecting previously collected blood into the postcisterna of a rabbit, subarachnoid bleeding similar to human subarachnoid bleeding can be produced experimentally in the rabbit. The therapeutic effect of a pharmaceutical composition for treating cerebrovascular contraction is judged by comparing the thickness of the basal arteria before and after the experimental production of subarachnoid bleeding.
# Subarachnoid bleeding was produced experimentally in rabbits, and 20 minutes thereafter 3 mg, 6 mg and 9 mg of 6-amidino-2-naphthyl p-guanidinobenzoate dimethanesulfonate [drawing 12] were respectively administered intravenously to the rabbits.
# factor Xa = conditions: coagulation system; cited from earlier work
# [2] = tested on: circulating blood coagulating action; assay: bleeding and coagulation times measured during intravenous administration in treated groups B and C; assay type: in vivo, human (patients)
# From the text: The present compound is a serine protease inhibitor which can inhibit various kinds of serine protease including C 1r, C 1s, factor B and factor D of complement system, factor XIIa, factor Xa and thrombin of coagulation system, plasma kallikrein of quinine system, plasmin of fibrinolytic system, trypsin, etc. […] It was considered that the administration method employed in this experiment would give no influence on circulating blood coagulating action of the compound.
# platelet agglutination = conditions: cited from earlier work
# C 1s = conditions: complement system; cited from earlier work
# factor XIIa = conditions: coagulation system; cited from earlier work
# [3] = tested on: factor D of complement system; conditions: cited from earlier work
# C 1r = conditions: complement system; cited from earlier work
# [4] = tested on: factor B of complement system; conditions: cited from earlier work
# [5] = cited from earlier work
# trypsin = conditions: cited from earlier work
# plasma kallikrein = conditions: quinine system; cited from earlier work
# thrombin = conditions: coagulation system; cited from earlier work
# plasmin = conditions: fibrinolytic system; cited from earlier work
# [6] = intermittent intravenous administration to subarachnoid bleeding patients after acute phase operation (DIND, CT low, Angiographic Spasm Scale, Glasgow Outcome Scale); assay type: in vivo, human (patients); conditions: for CT low due to spasm: control 43%; for good recovery (Glasgow Outcome Scale) / vegetative survival+death (Glasgow Outcome Scale): control 36%
# Protocol: We have tried intermittent intravenous administration of FUT-175 (nafamostat mesilate, the present compound) for the purpose of prevention and/or treatment of cerebrovascular contraction after acute phase operation on subarachnoid bleeding patients. A dosage of 40-160 mg/day was chosen by converting the amount of drug per kg rabbit weight to amount of drug per kg of human weight.
# The subjects were the ruptured cerebral aneurysm patients who had acute phase operation and belonged to Group 3 or 4 in Fisher's preoperative CT classification (Fisher, C. M., et al., "Cerebral vasospasm with ruptured saccular aneurysm-Clinical manifestations" (1977), Neurosurgery, volume 1, pages 245-248). […] Also, the subjects were limited to the cases of Grades II-IV in Hunt and Hess gravity grating without modification by previous history and to the patients to whom administration could be started within 48 hours after crisis (Hunt, W. E., et al., "Surgical risk as related to time of intervention in the repair of intracranial aneurysms" (1968), J. Neurosurg., volume 28, pages 14-20).
# The compound was given to the subjects by intermittent intravenous administration starting immediately after operation. In Group A, the compound was administered twice a day, 20 mg per administration (40 mg in total daily dosage) for 4 days; four times a day, 20 mg per administration (80 mg in total daily dosage) for 4 days in Group B; and four times a day, 40 mg per administration (160 mg in total daily dosage) for 4 days in Group C. Each dose of the compound was dissolved in 100 ml of physiological saline. Time of one intravenous administration was normally 2 hours.
# The control cases were the serious subarachnoid bleeding patients after acute phase clipping operation performed in our clinic in 1989. Both groups were substantially commensurate with each other in gravity grating and CT classification (Fisher classification by computed tomography), but in the control group there were slightly more cases of mycotic cerebral aneurysm than in the treated group.
# There was no difference between the control and treated groups in substances of treatment excepting administration of the present compound and in operating staff. The effect of the treatment was judged by occurrence or non-occurrence of delayed ischemic neurological deficit (DIND), low-density CT area due to vasospasm and caliber change in arteries as observed by cerebral angiography conducted in the period from day 5 to day 8 (post occurrence of cerebrovascular contraction) which is considered the peak period of development of vasospasm.
# For judgement of spasm in the control group, an Angiographic Spasm Scale (ASS) of the following grading was prepared:
# Grade 0 (none): No caliber change in any arteries,
# Grade 1 (mild): Vascular contraction is localized,
# Grade 2 (moderate): Multisegmental vascular contraction is observed, and
# Grade 3 (severe): Severe contraction exceeding 50% is seen in multisegmental sites (Weir, B., et al., "Time course of vasospasm in man" (1978), J. Neurosurg., volume 48, pages 173-178; Kim, H., et al., "Time course of vasospasm--Its clinical significance" (1979), Neuro. Med. Chir. (Tokyo), volume 19, pages 95-102).
# The Glasgow Outcome Scale (GOS) was used to evaluate the outcome one month after crisis. According to GOS, there are five degrees: 1-death, 2-vegetative state, 3-severe disability, 4-moderate disability, 5-good recovery.
# [7] = Groups A, B and C, one month after crisis
# [8] = Groups B and C (higher dosage), one month after crisis
# [9] = after serious subarachnoid bleeding
structure (smiles),measurement,setting,value
CS(=O)(=O)O.N=C(N)Nc1ccc(C(=O)Oc2ccc(SCCN3C(=O)CCC3=O)cc2)cc1 [4-(2-succinimidoethylthio)phenyl 4-guanidinobenzoate methanesulfonate],suppression of cerebrovascular contraction subsequent to subarachnoid bleeding,[1],"clearly suppressed the cerebrovascular contraction subsequent to subarachnoid bleeding, showing the same effect as that of the compound used in Example 1"
CS(=O)(=O)O.CS(=O)(=O)O.N=C(N)Nc1ccc(C(=O)Oc2ccc3cc(C(=N)N)ccc3c2)cc1 [6-amidino-2-naphthyl p-guanidinobenzoate dimethanesulfonate],inhibition of factor Xa,factor Xa,can inhibit
same,activated partial thromboplastin time (APTT),[2],in the normal ranges
same,bleeding time,[2],in the normal ranges
same,coagulation time,[2],in the normal ranges
same,prothrombin time (PT),[2],in the normal ranges
same,platelet agglutination inhibiting action,platelet agglutination,concentration dependent platelet agglutination inhibiting action
same,inhibition of C 1s,C 1s,can inhibit
same,Basal arteria thickness ratio,"[1]; 3 mg/kg i.v., 1st day",86%
same,Basal arteria thickness ratio,"[1]; 3 mg/kg i.v., 2nd day",79%
same,Basal arteria thickness ratio,"[1]; 3 mg/kg i.v., 3rd day",85%
same,Basal arteria thickness ratio,"[1]; 3 mg/kg i.v., 4th day",88%
same,Basal arteria thickness ratio,"[1]; 3 mg/kg i.v., 5th day",90%
same,Basal arteria thickness ratio,"[1]; 6 mg/kg i.v., 1st day",97%
same,Basal arteria thickness ratio,"[1]; 6 mg/kg i.v., 2nd day",95%
same,Basal arteria thickness ratio,"[1]; 6 mg/kg i.v., 3rd day",95%
same,Basal arteria thickness ratio,"[1]; 6 mg/kg i.v., 4th day",96%
same,Basal arteria thickness ratio,"[1]; 6 mg/kg i.v., 5th day",101%
same,suppression of cerebrovascular contraction subsequent to subarachnoid bleeding,[1],clearly suppressed the cerebrovascular contraction
same,inhibition of factor XIIa,factor XIIa,can inhibit
same,inhibition of factor D,[3],can inhibit
same,inhibition of C 1r,C 1r,can inhibit
same,inhibition of factor B,[4],can inhibit
same,passage into tissue,[5]; in vivo,quickly passes into tissue
same,"half-life period in blood, α phase",[5]; α phase,1.1 min
same,"half-life period in blood, β phase",[5]; β phase,23.1 min
same,inhibition of trypsin,trypsin,can inhibit
same,inhibition of plasma kallikrein,plasma kallikrein,can inhibit
same,inhibition of thrombin,thrombin,can inhibit
same,inhibition of plasmin,plasmin,can inhibit
same,CT-low attributable to DIND,"[6]; Group A, 40 mg/day for 4 days",2 out of 9
same,cases at grade 1 of ASS,"[6]; Group A, 40 mg/day for 4 days",3 cases
same,cases at grade 2 of ASS,"[6]; Group A, 40 mg/day for 4 days",3 cases
same,cases at grade 3 of ASS,"[6]; Group A, 40 mg/day for 4 days",3 cases
same,incidence of DIND,"[6]; Group A, 40 mg/day for 4 days",2 out of 9
same,cases at grade 0 (no caliber change in any arteries),"[6]; Group B, 80 mg/day for 4 days",4 cases
same,cases at grade 1 of ASS,"[6]; Group B, 80 mg/day for 4 days",3 cases
same,cases at grade 3 of ASS,"[6]; Group B, 80 mg/day for 4 days",one
same,incidence of DIND,"[6]; Group B, 80 mg/day for 4 days",one out of 9
same,low density area on CT scan,"[6]; Group B, 80 mg/day for 4 days",no case
same,incidence of DIND,"[6]; Group C, 160 mg/day for 4 days",no case
same,good in GOS (Glasgow Outcome Scale),"[6]; Group C, 160 mg/day for 4 days, one month after crisis",4 out of 5
same,subjects with no change or mild degree of contraction (angiographic spasm grading),"[6]; Groups A, B and C",64%
same,ASS Grade 3 (severe),"[6]; Groups A, B and C combined",18%
same,CT low due to spasm,"[6]; Groups A, B and C",9%
same,incidence of DIND,"[6]; Groups A, B and C, control 55%",13%
same,good recovery (Glasgow Outcome Scale),[6]; [7],65%
same,vegetative survival+death (Glasgow Outcome Scale),[6]; [7],9%
same,ASS Grade 3 (severe),[6]; Groups B and C (higher dosage),8%
same,subjects mild or none in degree of contraction (angiographic spasm grading),[6]; Groups B and C (higher dosage),85%
same,CT low due to spasm,[6]; Groups B and C (higher dosage),0%
same,incidence of DIND,"[6]; Groups B and C (higher dosage), control 55%",7%
same,good recovery (Glasgow Outcome Scale),[6]; [8],71%
same,vegetative survival+death (Glasgow Outcome Scale),[6]; [8],0%
same,inhibition of incidence of delayed ischemic neurological deficit,[6]; [9],could inhibit incidence of delayed ischemic neurological deficit
same,prognosis of the patient,[6]; [9],improve the prognosis of the patient
